Measured values reported in US20030005484A1, “Microbiocidal and pesticidal aromatic aldehydes” (ProGuard, Inc., priority 1994, published 2003).
“And” between values parts separate entries of the source, which are not always exact repeats. Identical values can stand only once.

Assays:
[1] = system: powdery mildew; test: powdery mildew on roses, disease rating / MPDC after foliar spray; format: in vivo, Sphaerotheca pannosa; settings: for Mean % Disease Control, rose powdery mildew: no aldehyde: additive alone (T80 10 g, NaHCO3 80 g) or Benomyl per manufacturer instructions, four days
Method: Each formulation is evaluated for its effect on specific pests and/or plant host using any of the compounds of formula (1) as well as other components of the formulation such as Tween 80 and/or sodium bicarbonate, with the combination and effective amount of each component adapted for a particular application to minimize toxicity while maintaining or increasing the antipathogenic effect of the formulation. The effective amount of each component may be determined by systematically varying the amount of that component in a test formulation, treating a plant of interest with the test formulation, and monitoring the level of pest infestation compared to an untreated control plant. An effective amount of a test component is identified as the amount that controls the growth of the pathogen on the plant host, thus reducing the disease rating of the plant. The mean percentage disease […] (MPDC) can be calculated for each particular application. MPDC is defined by the formula: [formula] Eight cultivars of rose were tested to investigate the effect of a cinnamic aldehyde/NaHCO3 formulation on rust and spores. The cultivars used included Moss unnamed (Moss), […], Rosette Delize (Hybrid Tea), Rosa Rugosa Rubra (Rugosa), Abel Morrison (Hybrid perpetual), John Laing, Betty Prior, and Rose de Roi. […] The Hybrid Tea and Hybrid perpetual were rated 3 and the Rugosa was rated 1. […] Control plants received no treatment. […] Moreover, the treatment appeared to have induced systemic resistance. […] Plants were an average of 0.86 m apart. […] Controls were untreated plants. […] Weekly reviews were made of the various plants. […] of infected rose in dedicated experimental rose gardens were used. Four Mrs. John Laing (Hybrid perpetual) and two Marchionese of Londonderry (Hybrid perpetual) rose plants were treated with one of two formulations of coniferyl aldehyde. […] The first two Mrs. […] Mrs. […] Both Marchionese of Londonderry plants (P5 and P6) were rated 5 for powdery mildew and rust after Paulus and Nelson (supra). Two treatment formulae were used for this trial. […] Control plants were sprayed with water alone. The change in the rating from pre-treatment to post-treatment was calculated as the mean percentage of disease control (MPDC) as described herein. A three treatment experiment with cinnamic aldehyde formula, coniferyl aldehyde formula and combined cinnamic and coniferyl aldehyde formula was carried out on field grown roses known to be susceptible to powdery mildew. The plants were blocked by variety before fungicide treatments and were randomized as to the plants. Two varieties were used in each of the three experiments described below. […] In experiment 3 Comte de Chambord (Portland) and Madame Pierre Oger (Bourbon) were used. In Experiment 1, the effect of cinnamic aldehyde alone and in combination with Tween 80 and/or NaHCO3 component was evaluated in experiment 2 the effect of coniferyl aldehyde alone and in combination with Tween 80 and/or NaHCO3 was evaluated and in experiment 3 a combination of cinnamic aldehyde and coniferyl aldehyde with Tween 80 and/or NaHCo3 was evaluated. […] See Table 3 for the treatment protocol; formula 1 was used for these experiments. […] Plants were evaluated using the Paulus/Nelson scale just prior to and four days after treatment. […] Moreover, cinnamic aldehyde, coniferyl aldehyde, Tween 80 and NaHCO3 are used in the food industry and there is likely to be little toxicological risk to the consumer or handler from any horticultural or food crop sprayed in this way. Similarly, as these chemicals leave no toxic residue, there is little chance of any detrimental effect on the wider environment, and their use is likely to be compatible with current biological control methods such as beneficial insects and/or microorganisms.

[2] = system: silverleaf white fly, Bemisia argentifolii; test: silver leaf white fly Petri dish bioassay; settings: for Silver Leaf White Fly Mortality (Percent): no aldehyde: T80 (10 g), NaHCO3, T80(2%) + NaHCO3 (6%) or Malathion (250 ppm) alone
Method: (§1) Activity of cinnamic aldehyde and/or coniferyl aldehyde against black bean aphid, Tetranychus urticae, and silverleaf white fly, Bemisia argentifolii was determined as follows:
Petri dishes (60 mm) were treated with cinnamic aldehyde at 10-25,000 ppm in 2% Tween 80 and 6% NaHCO3 dissolved in water, and allowed to air dry. Twenty adult silver leaf white fly were put in each dish, (replicate 10 times). The mortality after three hours in contact with a treated plate, was compared to that of silver leaf white fly in petri dishes treated only with diluent. Malathion at 250 ppm was used as a positive control.

[3] = system: root-knot nematode, Meloidogyne javanica; format: in vivo; settings: controls: saponin alone (1:60 dilution of 10 brix concentrate; compared with 100% mortality), Ethanol (95%)
Method: In a double blind study, concentrations of the subject aldehyde compounds were tested for activity against root-knot nematode, Meloidogyne javanica. Nematodes were put in direct contact with the chemical and at 24 hour intervals, mortality was assessed both visually and by probing. Meloidogyne javanica were produced using hydroponics. The nematodes were harvested and used within 24 hours.
Approximately 100 nematodes in 0.07 mls of water were pipetted into a syracuse dish (Fisher) and 1 ml of test formulation was immediately pipetted into each dish. The dishes were then placed into plastic bags to retain moisture and prevent evaporation. Four syracuse dishes were used for each solution test formulation. […] Moving nematodes were counted as living.

[4] = system: grape phylloxera eggs; test: whole plant or invertebrate; settings: for approximate egg hatch LD 50: egg tests with CNMA analogs; for nymphs that died in the shell (DIS): controls: Carbofuran 10 ppm, malathion 250 ppm, 7 days
Method: Mixed age groups of 60 grape phylloxera eggs were established on filter paper (Whatman #1, 5.5 cm circles) in 50×9 mm sealed plastic petri dishes treated with 100 μl of solution. A selected concentration of a test formulation of 400 μl was added to the filter disk and the dish closed with the petri dish cover and placed in a plastic container box. After 6 hours, the box was placed in an environmental chamber at 24° C. in the dark. The eggs were placed in groups of 10. After one week, the percentage of hatch is determined. In an initial test, doses from 0.1 to 25,000 ppm cinnamic aldehyde in 6% NaHCO3 and 2% Tween 80 were evaluated with a single group of eggs at each dosage. Three replicates of the experiment were performed. […] LD50 and LD95 were determined by probit analysis.
Grape phylloxera eggs were treated with cinnamaldehyde (CNMA) in a 6% NaHCO3, 2% Tween-80 formulation in a laboratory bioassay. Mortality of the eggs was indicated by failure of the egg shell to split. […] Leaves of one-year-old greenhouse Vitis vinifera cultivar Merlot vines heavily infested with grape phylloxera were sprayed to run-off with a CNMA treatment using the same formulation. […] Roots taken from plants 1, 2 and 5 weeks after CNMA or other treatments were placed in Petri dish bioassays and infested with untreated phylloxera eggs.
Eggs of various age classes were placed on Whatman #1 filter paper moistened with enough treatment solution to form a meniscus about halfway up the sides of the eggs. The pieces of filter paper with eggs were maintained in sealed plastic Petri dishes at […] until they were 7 days old and then hatched individuals were counted. Hatch was considered successful if the […]

[5] = system: Fusarium subglutinans f. sp. pini; test: radial growth on amended potato dextrose agar; format: cell-based; settings: controls: Saponin alone, 5 ppm Benomyl, Glutaraldehyde 2%; five days at 18° C
Method: A double-blind bioassay was undertaken using cinnamic aldehyde in various concentrations and formulations. The bioassay was based on inhibition of radial growth of Fusarium subglutinans f. sp. pini. Eight ml of formulation (concentration unknown) was pipetted into 200 ml of molten 2% potato dextrose agar (PDA) and the mixture was dispersed into five plastic petri dishes (25 ml dish). Each of four plates was inoculated at the center with an agar plug transferred from a growing PDA culture of Fusarium subglutinans f. sp. pini (isolate SL-1, UCB), while the fifth plate was left noninoculated as a control. These steps were repeated for each formulation of the cinnamic aldehyde. As a positive control, four PDA plates amended with 5 ppm benomyl were inoculated. as described; the negative control was four unamended PDA plates that were inoculated with F. subglutinans. All inoculated and non-inoculated plates were incubated at 18° C. for five days, after which colony diameters were measured.

[6] = system: grape phylloxera; test: grape phylloxera adult and nymphal mortality, root dip; format: in vivo, Daktulosphaira vitifoliae; settings: Daktulosphaira vitifoliae, 120 h; positive control 250 ppm malathion in water; root dip; 5 days; read-out: mortality of adults and nymphs
Method: Approximately twenty four eggs of phylloxera were allowed to develop for up to 30 days on standard excised grape roots. At around 30 days, some of the insects were nymphs while others were adults. New eggs were removed during the process. Insect infected roots were submerged into a test formula for 6 seconds then set aside to dry in the air. The percentage of live insects, as defined by growth, oviposition or limb movement, was determined after 5 days. An insect was considered dead if it abandoned its feed site.
In an initial test, doses of 20,000 ppm cinnamic aldehyde in water (i.e., 2% cinnamic aldehyde) with various additives were evaluated. Cinnamic aldehyde without any additives produced 83.3% mortality. With-1% Tween 80 added, 91.7% mortality was seen. With 6% NaHCO3 added to a solution of 2% cinnamic aldehyde, 91.7% mortality was seen. With 1% Tween 80 and 6% NaHCO3 added to a solution of 2% cinnamic aldehyde, 100% mortality was seen. Water with no additives produced no mortality, while a positive control solution of 250 ppm malathion in water gave 100% mortality.
For nymph and adult tests, eggs were placed on excised root pieces similar to those used for rearing purposes and these were sealed in Petri dishes and held at 24° C. for 18-25 days to allow insects to hatch, initiate feeding sites and develop. At about this time about half the population was in the adult stage. Prior to testing, the population on each root was determined as well as the developmental stage of each insect. Eggs were removed. These root pieces were then dipped for 5 sec into test solutions and allowed to air dry before they were returned to Petri dishes, sealed and placed back in the temperature chamber at 24° C. Mortality was determined after 5 days. Insects were considered dead if they appeared black or desiccated and if they had not developed since the pre-treatment reading and had laid no or few new eggs.

[7] = system: phylloxera-biotype A; test: greenhouse Merlot vines infested with phylloxera, leaf spray, disease rating of roots; format: in vivo, Daktulosphaira vitifoliae; settings: Experiment 2, 200 ppm Malathion leaf treatment
Excerpt: For greenhouse tests, one year old potted V. vinifera cultivar merlot plants were used that had been obtained from Foundation Plant Material Service, University of California, Davis. The plants were potted in 10 cm diameter pots and were infested with phylloxera 5 weeks prior to treatment. At the time of spraying with a treatment solution, plant pots were placed in a plastic bag so that chemical runoff from the leaf sprays would not drip into the soil. The plants were sprayed to runoff with a household 1 liter-capacity plastic spray bottle. Plants were allowed to air dry outside and then replaced in the greenhouse. At intervals thereafter, the roots were separated from the potting mix and total phylloxera population estimated.

[8] = system: black bean aphid, Tetranychus urticae; test: aphid Petri dish bioassay; settings: malathion 250 ppm, positive control; three hours contact
Method: as §1
Petri dishes (60 mm) were treated with cinnamic aldehyde at 10-25,000 ppm in 2% Tween 80 and 6% NaHCO3 dissolved in water, and the dishes allowed to air dry. Twenty adult aphids (Tetranychus urticae) were put in each dish, (replicate 10 times). The mortality after three hours in contact with a treated plate was compared to that of aphids in petri dishes treated only with diluent. Malathion (250 ppm) was used as a positive control.

CCCCCCCC/C=C\CCCCCCCC(=O)OCCOCC(OCCO)C1OCC(OCCO)C1OCCO (stereo not shown) [T80, Tween 80]
Mean % Disease Control, rose powdery mildew [1]: 0%
Silver Leaf White Fly Mortality (Percent) [2]: 14.5%

CCO [Ethanol, reference compound]
mortality at 24 hours [3]: killed all nematodes

COC(=O)C=Cc1ccccc1 [Cinnamyl acid methyl ester]
approximate egg hatch LD 50 [4]: > 320 ppm and < 560 ppm

O=C([O-])O.[Na+] [NaHCO3]
Mean % Disease Control, rose powdery mildew [1]: 44%
Silver Leaf White Fly Mortality (Percent) [2]: 22.9%

O=CCCCC=O [Glutaraldehyde, reference compound]
Colony diameter (cm) [5]: 3.663 cm and 3.66 cm

CCCCNC(=O)n1c(NC(=O)OC)nc2ccccc21 [Benomyl, reference compound]
Mean % Disease Control, rose powdery mildew [1]: 79%
Mean disease control ([1]; sprayed roses, parallel experiments): approximately 80%
Colony diameter (cm) [5]: 0.000 cm and 0 cm

OCC=Cc1ccccc1 [Cinnamyl alcohol]
approximate egg hatch LD 50 [4]: > 320 ppm and < 560 ppm

CNC(=O)Oc1cccc2c1OC(C)(C)C2 [Carbofuran, reference compound]
nymphs that died in the shell (DIS) [4]: 100%

CCOC(=O)CC(SP(=S)(OC)OC)C(=O)OCC (stereo not shown) [malathion, reference compound]
mortality at 250 ppm [6]: 100%
nymphs that died in the shell (DIS) [4]: 100%
Average disease rating (0-4) ([7]; 1 day post treatment): 4 (3)
Average disease rating (0-4) ([7]; 2 days post treatment): 2.3(3)
Average disease rating (0-4) ([7]; 7 days post treatment): 0(2)
aphids killed [8]: 100%
silver leaf white fly killed ([2]; malathion 250 ppm, positive control, three hours contact): 100%
